Experimental data as given in PubChem BioAssay AID248 (DTP/NCI, 2004).
Where “and” joins values, the source holds several entries; their conditions need not be identical. Equal entries are not always repeated. Toxic doses and inconclusive results are not listed. No stated cut-off is given here; in the data, active means T/C of 150% or more; inactive means T/C below 125%.

System: L1210 leukemia ip in BDF1 mice, survival T/C
Test: NCI In Vivo Anticancer Drug Screen. Data for tumor model L1210 Leukemia (intraperitoneal) in B6D2F1 (BDF1) mice
Settings: endpoint: mean survival time, higher = longer survival
Method in brief: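 Value reflects the ratio of survival in compound-treated mice to survival in vehicle-treated controls, with both groups carrying the same transplanted tumor.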

[1] = dose: 25.0 mg/kg/injection, schedule: Q04DX003 (ip), vehicle: Klucel (hydroxypropylcellulose) (HPC)
[2] = dose: 50.0 mg/kg/injection, schedule: Q04DX003 (ip), vehicle: Klucel (hydroxypropylcellulose) (HPC)
[3] = dose: 100.0 mg/kg/injection, schedule: Q01DX001 (ip), vehicle: Klucel (hydroxypropylcellulose) (HPC)
[4] = dose: 100.0 mg/kg/injection, schedule: Q04DX003 (ip), vehicle: Klucel (hydroxypropylcellulose) (HPC)
[5] = dose: 200.0 mg/kg/injection, schedule: Q01DX001 (ip), vehicle: Klucel (hydroxypropylcellulose) (HPC)
[6] = dose: 200.0 mg/kg/injection, schedule: Q04DX003 (ip), vehicle: Klucel (hydroxypropylcellulose) (HPC)
[7] = dose: 400.0 mg/kg/injection, schedule: Q01DX001 (ip), vehicle: Klucel (hydroxypropylcellulose) (HPC)
[8] = dose: 100.0 mg/kg/injection, schedule: Q04DX003 (ip), vehicle: saline with Tween-80
[9] = dose: 200.0 mg/kg/injection, schedule: Q04DX003 (ip), vehicle: saline with Tween-80
[10] = dose: 100.0 mg/kg/injection, schedule: Q01DX009 (ip), vehicle: Klucel (hydroxypropylcellulose) (HPC)
[11] = dose: 200.0 mg/kg/injection, schedule: Q01DX009 (ip), vehicle: Klucel (hydroxypropylcellulose) (HPC)
[12] = dose: 400.0 mg/kg/injection, schedule: Q01DX009 (ip), vehicle: Klucel (hydroxypropylcellulose) (HPC)
[13] = dose: 100.0 mg/kg/injection, schedule: Q01DX001 (ip), vehicle: saline
[14] = dose: 200.0 mg/kg/injection, schedule: Q01DX001 (ip), vehicle: saline
[15] = dose: 400.0 mg/kg/injection, schedule: Q01DX001 (ip), vehicle: saline
[16] = dose: 25.0 mg/kg/injection, schedule: Q01DX009 (ip), vehicle: Klucel (hydroxypropylcellulose) (HPC)

Measured: T/C

CCOC(=O)c1[nH]c(C)c(CCC(=O)O)c1C
inactive: dose: 12.0 mg/kg/injection, schedule: Q04DX003 (ip), vehicle: Klucel (hydroxypropylcellulose) (HPC) 95 % of control | [1] 98 % of control | [2] 104 % of control | [3] 97 % of control | [4] 103 % of control | [5] 97 % of control | [6] 98 % of control | [7] 101 % of control

Oc1c(CN2CCCC2)cc(Nc2cc(/C=C/c3ccc(Cl)cc3)nc(/C=C\c3ccc(Cl)cc3)n2)cc1CN1CCCC1
inactive: dose: 1.0 mg/kg/injection, schedule: Q01DX009 (ip), vehicle: Klucel (hydroxypropylcellulose) (HPC) 110 % of control | dose: 3.0 mg/kg/injection, schedule: Q01DX009 (ip), vehicle: Klucel (hydroxypropylcellulose) (HPC) 98 % of control | dose: 6.0 mg/kg/injection, schedule: Q01DX009 (ip), vehicle: Klucel (hydroxypropylcellulose) (HPC) 101 % of control | dose: 12.0 mg/kg/injection, schedule: Q01DX009 (ip), vehicle: Klucel (hydroxypropylcellulose) (HPC) 91 % of control | dose: 12.0 mg/kg/injection, schedule: Q04DX003 (ip), vehicle: saline 88 % of control | dose: 50.0 mg/kg/injection, schedule: Q04DX003 (ip), vehicle: saline 88 % of control

CCCCCCC(Cl)CCl (centres undefined)
inactive: dose: 50.0 mg/kg/injection, schedule: Q01DX009 (ip), vehicle: saline 97 % of control | dose: 100.0 mg/kg/injection, schedule: Q01DX009 (ip), vehicle: saline 110 % of control | dose: 100.0 mg/kg/injection, schedule: Q04DX003 (ip), vehicle: saline 103 % of control | dose: 200.0 mg/kg/injection, schedule: Q04DX003 (ip), vehicle: saline 115 % of control | dose: 400.0 mg/kg/injection, schedule: Q04DX003 (ip), vehicle: saline 108 % of control

COC(=O)c1oc(C(=O)OC)c(OCc2ccccc2)c1OCc1ccccc1
inactive: [4] 103 % of control | [6] 106 % of control | dose: 400.0 mg/kg/injection, schedule: Q04DX003 (ip), vehicle: Klucel (hydroxypropylcellulose) (HPC) 95 % of control

CCCC(NC(=O)OCC)NC(=O)OCC
inactive: dose: 50.0 mg/kg/injection, schedule: Q01DX001 (ip), vehicle: carboxymethylcellulose (CMC) 95 % of control | dose: 100.0 mg/kg/injection, schedule: Q01DX001 (ip), vehicle: carboxymethylcellulose (CMC) 92 % of control | dose: 200.0 mg/kg/injection, schedule: Q01DX001 (ip), vehicle: carboxymethylcellulose (CMC) 90 % of control | dose: 400.0 mg/kg/injection, schedule: Q01DX001 (ip), vehicle: carboxymethylcellulose (CMC) 92 % of control

CCCCCCCCCC(=O)N(CCC)CCC
inactive: [8] 91 % of control | [9] 88 % of control

Cc1cccc(NC(=O)Oc2ccc(-c3ccccc3)cc2)c1
inactive: [10] 98 % of control | dose: 100.0 mg/kg/injection, schedule: Q04DX002 (ip), vehicle: Klucel (hydroxypropylcellulose) (HPC) 95 % of control | [11] 97 % of control | dose: 200.0 mg/kg/injection, schedule: Q04DX002 (ip), vehicle: Klucel (hydroxypropylcellulose) (HPC) 88 % of control | [12] 97 % of control | dose: 400.0 mg/kg/injection, schedule: Q04DX002 (ip), vehicle: Klucel (hydroxypropylcellulose) (HPC) 88 % of control

O=C(O)C1CCCN1[N+](=O)[O-] (centres undefined)
inactive: [13] 100 % of control | [14] 104 % of control | [15] 110 % of control

O=C(C=P(c1ccccc1)(c1ccccc1)c1ccccc1)CCl
inactive: dose: 6.25 mg/kg/injection, schedule: Q01DX001 (ip), vehicle: Klucel (hydroxypropylcellulose) (HPC) 102 % of control | dose: 6.25 mg/kg/injection, schedule: Q01DX009 (ip), vehicle: Klucel (hydroxypropylcellulose) (HPC) 103 % of control | dose: 6.25 mg/kg/injection, schedule: Q04DX003 (ip), vehicle: Klucel (hydroxypropylcellulose) (HPC) 97 % of control | dose: 12.5 mg/kg/injection, schedule: Q01DX001 (ip), vehicle: Klucel (hydroxypropylcellulose) (HPC) 98 % of control | dose: 12.5 mg/kg/injection, schedule: Q01DX009 (ip), vehicle: Klucel (hydroxypropylcellulose) (HPC) 101 % of control | dose: 12.5 mg/kg/injection, schedule: Q04DX003 (ip), vehicle: Klucel (hydroxypropylcellulose) (HPC) 97 % of control | dose: 25.0 mg/kg/injection, schedule: Q01DX001 (ip), vehicle: Klucel (hydroxypropylcellulose) (HPC) 98 % of control | [16] 104 % of control | [1] 100 % of control

CSc1c(Cl)c(C(Cl)(Cl)Cl)nc2ccccc12
inactive: dose: 12.5 mg/kg/injection, schedule: Q01DX009 (ip), vehicle: saline with Tween-80 93 % of control | dose: 25.0 mg/kg/injection, schedule: Q01DX009 (ip), vehicle: saline with Tween-80 93 % of control | dose: 50.0 mg/kg/injection, schedule: Q01DX009 (ip), vehicle: saline with Tween-80 103 % of control and 104 % of control

Oc1ccc2ccccc2c1/C=C1/C=Nc2ccccc21
inactive: dose: 100.0 mg/kg/injection, schedule: Q04DX002 (ip), vehicle: saline with Tween-80 88 % of control | dose: 200.0 mg/kg/injection, schedule: Q04DX002 (ip), vehicle: saline with Tween-80 88 % of control | dose: 400.0 mg/kg/injection, schedule: Q04DX002 (ip), vehicle: saline with Tween-80 103 % of control

COc1ccc(C)cc1NC(=O)Nc1cc([N+](=O)[O-])ccc1C
inactive: [10] 93 % of control | [11] 98 % of control | [12] 102 % of control

CCCCC(=O)c1ccc(C)cc1
inactive: [13] 102 % of control | [14] 98 % of control | [15] 96 % of control

O=C(O)c1ccc(Nc2ncnc3nc[nH]c23)cc1
inactive: [8] 104 % of control | [9] 96 % of control | dose: 400.0 mg/kg/injection, schedule: Q04DX003 (ip), vehicle: saline with Tween-80 102 % of control

Cc1cc([N+](=O)[O-])c(Cl)cc1N
inactive: dose: 100.0 mg/kg/injection, schedule: Q04DX003 (ip), vehicle: gum acacia 93 % of control | dose: 200.0 mg/kg/injection, schedule: Q04DX003 (ip), vehicle: gum acacia 95 % of control | dose: 400.0 mg/kg/injection, schedule: Q04DX003 (ip), vehicle: gum acacia 95 % of control

O=C(O)c1cc2ccccc2oc1=O
inactive: dose: 10.0 mg/kg/injection, schedule: Q01DX009 (ip), vehicle: Klucel (hydroxypropylcellulose) (HPC) 101 % of control | [3] 95 % of control | [5] 97 % of control | [7] 98 % of control

O=C(COc1ccc(Cl)cc1Cl)Nc1cccc2c1C(=O)c1ccccc1C2=O
inactive: dose: 100.0 mg/kg/injection, schedule: Q04DX002 (ip), vehicle: saline + alcohol 96 % of control | dose: 200.0 mg/kg/injection, schedule: Q04DX002 (ip), vehicle: saline + alcohol 100 % of control | dose: 400.0 mg/kg/injection, schedule: Q04DX002 (ip), vehicle: saline + alcohol 96 % of control

Brc1ccc(/C=N/Nc2nnc(N/N=C/c3ccc(Br)cc3)c3ccccc23)cc1
inactive: dose: 50.0 mg/kg/injection, schedule: Q01DX001 (ip), vehicle: saline 93 % of control | [13] 96 % of control | [14] 102 % of control | [15] 102 % of control

Cc1ccccc1N=C(N)N=C(N)N
inactive: [16] 93 % of control | [1] 95 % of control | dose: 50.0 mg/kg/injection, schedule: Q01DX009 (ip), vehicle: Klucel (hydroxypropylcellulose) (HPC) 90 % of control | [2] 103 % of control | [10] 98 % of control and 92 % of control | [4] 100 % of control and 90 % of control

N#CC(C#N)=Cc1ccc([N+](=O)[O-])s1
inactive: dose: 12.5 mg/kg/injection, schedule: Q04DX002 (ip), vehicle: Klucel (hydroxypropylcellulose) (HPC) 96 % of control | dose: 25.0 mg/kg/injection, schedule: Q04DX002 (ip), vehicle: Klucel (hydroxypropylcellulose) (HPC) 100 % of control

Cc1cc(N)nc(=O)n1C1OC(CO)C(O)C1O (centres undefined)
inactive: [13] 96 % of control | [14] 102 % of control | [15] 101 % of control

O=c1c(N=Nc2ccc(Br)cc2)c(O)n(-c2ccc(Br)cc2)c(=S)n1-c1ccccc1
inactive: dose: 37.5 mg/kg/injection, schedule: Q01DX001 (ip), vehicle: Klucel (hydroxypropylcellulose) (HPC) 108 % of control | dose: 75.0 mg/kg/injection, schedule: Q01DX001 (ip), vehicle: Klucel (hydroxypropylcellulose) (HPC) 110 % of control | dose: 150.0 mg/kg/injection, schedule: Q01DX001 (ip), vehicle: Klucel (hydroxypropylcellulose) (HPC) 102 % of control
